{
  "source": "paper PMC6315548",
  "about": "“Cardiac Targeting Peptide, a Novel Cardiac Vector: Studies in Bio-Distribution, Imaging Application, and Mechanism of Transduction” (Biomolecules, 2018)",
  "key": {"beating neonatal CMCs": {"system": "beating neonatal CMCs", "assay": "Uptake of dual-labeled CTP by beating neonatal cardiomyocytes (confocal microscopy)", "format": "cell-based, mouse", "settings": "Digoxin 100 nM; 20 mM K+; dual-labeled CTP 25 μM; n = 3; p-value < 0.001", "experimental": "To further study the CTP’s mechanism of transduction, CMCs were isolated from 1–3-day old mouse pups using published protocols. Beating CMCs were incubated with the dual-labeled CTP (25 μM) under normokalemic (5 mM) and hyperkalemic (20 mM) conditions. […] The degree of transduction of these cells was quantified using confocal microscopy. […] Rhodamine with an ester link was used as a negative control."}, "transferrin receptor": {"biological_target": "T1, transferrin receptor (Rattus norvegicus, UniProt Q99376)", "T1 construct": "endogenous in cells; host or cells: H9C2 rat cardiomyoblast cells", "T1 sequence (Q99376 whole entry)": "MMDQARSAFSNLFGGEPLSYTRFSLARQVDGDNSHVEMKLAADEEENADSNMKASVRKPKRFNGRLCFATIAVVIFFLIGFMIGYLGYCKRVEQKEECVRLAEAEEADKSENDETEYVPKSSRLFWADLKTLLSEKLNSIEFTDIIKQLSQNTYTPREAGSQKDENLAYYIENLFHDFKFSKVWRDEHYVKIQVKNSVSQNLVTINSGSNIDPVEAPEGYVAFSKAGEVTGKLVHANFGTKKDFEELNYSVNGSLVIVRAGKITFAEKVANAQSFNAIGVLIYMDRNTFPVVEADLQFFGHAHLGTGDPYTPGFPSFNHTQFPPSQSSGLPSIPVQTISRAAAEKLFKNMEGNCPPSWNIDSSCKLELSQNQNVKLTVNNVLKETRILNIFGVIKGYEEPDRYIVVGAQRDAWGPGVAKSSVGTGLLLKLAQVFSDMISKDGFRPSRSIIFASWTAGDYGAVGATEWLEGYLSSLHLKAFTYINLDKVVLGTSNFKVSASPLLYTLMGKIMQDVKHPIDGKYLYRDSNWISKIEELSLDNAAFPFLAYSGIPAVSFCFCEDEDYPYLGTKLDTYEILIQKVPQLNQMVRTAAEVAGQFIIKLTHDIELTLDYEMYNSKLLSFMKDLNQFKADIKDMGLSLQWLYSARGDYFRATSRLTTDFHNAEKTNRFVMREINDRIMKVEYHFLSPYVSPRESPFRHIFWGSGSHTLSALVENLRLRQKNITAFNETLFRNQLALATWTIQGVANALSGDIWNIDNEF", "assay": "LRC-TriCEPs ligand-receptor capture on H9C2 cells, mass spectrometry (transferrin positive control)", "format": "binding", "settings": "TriCEPS-transferrin conjugate on H9C2 cells; triplicate", "text": "To identify a possible binding partner for CTP, we utilized LRC-TriCEPs technology a service provided by Dualsystems Biotech (Zurich, Switzerland). This methodology relies on TriCEPs™, a trifunctional chemoproteomics reagent, containing (1) a N-hydroxysuccinimide (NHS) ester for attachment to the ligand, (2) a protected hydrazine function for capturing the interacting receptor, and (3) a function for the purification of the ligand-receptor complex. Rat cardiomyoblast cell line H9C2 cells were grown in Dulbecco’s Modified Eagle’s Medium: Nutrient Mixture F-12 (DMEM/F12) (Gibco, Gaithersburg, MD, USA; cat #11039) medium supplemented with 10% fetal bovine serum and maintained at ≤70% confluence. A pretest was performed to identify the binding conditions of the TriCEPS-CTP conjugate on H9C2 cells at varying temperatures, times of incubation, and pH, with successful labeling being analyzed by fluorescence-activated cell sorting (FACs). The LRC-TriCEPS experiment was performed with TriCEP-CTP, TriCEPS-transferrin, and TriCEPS-glycine conjugates, each in triplicate. After the incubation period, cells were lazed and purified using solid-state chromatography, and identified using mass spectrometry. […]"}, "[1]": {"system": "human iPSC-derived beating cardiomyocytes (CMCs)", "assay": "Transduction of human iPSC-derived cardiomyocytes (confocal imaging)", "format": "cell-based", "settings": "10 μM, 30 min, 37 °C; washed 3x with PBS; confocal microscopy; Supplemental Figure 5", "experimental": "All protocols involving human tissue samples were approved by the University of Pittsburgh Institutional Review Board (No. PRO09090021). […] After the incubation period, cells were washed, and live confocal imaging was performed immediately."}, "wild-type CD1 mice": {"system": "wild-type CD1 mice", "assay": "Cardiac targeting peptide imaging studies (microSPECT/CT and dynamic planar imaging)", "format": "in vivo, mouse", "settings": "1-5 mCi injected; dual modality microSPECT/CT", "experimental": "Cardiac targeting peptide was synthesized as detailed above, with HYNIC conjugated to the N-terminus and labeled with ^99mTc in a manner that was analogous to that described previously. The desired ^99mTc-HYNIC-CTP was purified from the crude reaction mixture using solid-phase extraction methods. The radiochemical purity of the final product was determined using reverse-phase HPLC methods.\nWild-type, 6–8 week old, CD1 mice (~25 g) were injected with 1–5 mCi of ^99mTc Sestamibi or ^99mTc-HYNIC-CTP, and was imaging performed immediately post-injection and at various time points using a Siemens Inveon dual-modality single photon emission computerized tomography/computerized tomography (SPECT/CT) with 5-MWB-1.0 collimators (Siemens Corporation, Washington, DC, USA). The images were resliced for a coronal view and they were Z-stack summed. Analysis of the distribution of the radioisotope was performed using ImageJ software. Measurements were taken by selecting a region of interest at the 0 h time point, applying the same region at different time points for dynamic time course studies. All counts were corrected for the radioactive decay of ^99mTc. For a comparison of dynamic planar images, the highest count in each organ (heart, kidney, and bladder) was set at 100%, and the counts at other time-points plotted as a percentage of that count."}},
  "data": [
    {"compound": "C[C@H]1O[C@@H](O[C@H]2[C@@H](O)C[C@H](O[C@H]3[C@@H](O)C[C@H](O[C@H]4CC[C@@]5(C)[C@H](CC[C@@H]6[C@@H]5C[C@@H](O)[C@]5(C)[C@@H](C7=CC(=O)OC7)CC[C@]65O)C4)O[C@@H]3C)O[C@@H]2C)C[C@H](O)[C@@H]1O", "note": "[Digoxin]", "values": [
      {"measurement": "effect of pre-incubation on the hyperkalemia-induced increase in CTP uptake", "setting": "beating neonatal CMCs", "result": "significantly abrogated"}
    ]},
    {"compound": "transferrin: positive control ligand in the LRC-TriCEPS experiment", "values": [
      {"measurement": "fold increase of transferrin receptor in the positive control over CTP", "setting": "transferrin receptor", "result": "~5", "unit": "fold"}
    ]},
    {"compound": "H-STLMKFCYVEQN-OH [RAN]", "values": [
      {"measurement": "uptake by human iPSC-derived CMCs", "setting": "[1]", "result": "some background binding to the gel matrix"}
    ]},
    {"compound": "[C-]#[N+]CC(C)(C)OC.[C-]#[N+]CC(C)(C)OC.[C-]#[N+]CC(C)(C)OC.[C-]#[N+]CC(C)(C)OC.[C-]#[N+]CC(C)(C)OC.[C-]#[N+]CC(C)(C)OC.[Tc]", "note": "[^99mTc Sestamibi]", "values": [
      {"measurement": "uptake by the heart (SPECT/CT)", "setting": "wild-type CD1 mice", "result": "cardiac uptake"},
      {"measurement": "uptake in the liver or gut (for Sestamibi also kidneys)", "setting": "wild-type CD1 mice", "result": "significant uptake"}
    ]}
  ]
}
